Laboratory results: patent publication US20240158439A1, “INHIBITORS OF ANTIGEN PRESENTATION BY MHC CLASS II HLA-DRB1*15:01 MOLECULES WITH ENHANCED METABOLIC STABILITY” (Provid Pharmaceuticals Inc., priority 2021, published 2024)
Several values for one entry are separate records, joined by “and”; a condition that tells them apart may be missing. Equal entries are not always repeated. Where two headings read alike, the source gives them in different places. Values belong to the compound of their own block, whether it stands above or below them. Where a SMILES comes first, the peptide text is derived from it. [ ]: non-standard residue; d: D form. The star is where a group is joined. Bta = N[C@@H](Cc1csc2ccccc12)C(=O)O; NH(CH2CH2O)4Me = COCCOCCOCCOCCN*; Tic = O=C(O)[C@@H]1Cc2ccccc2CN1; Chg = N[C@H](C(=O)O)C1CCCCC1; NHCH2CH2OMe = COCCN*

Assays:
[1] = Mouse pharmacokinetics/metabolism study; format: in vivo, C57BL/6J mice
Procedure: The pharmacokinetics/metabolism study was performed in non-fasted C57BL/6J mice. Dose formulation was prepared on the day of treatment, using 10% v/v DMSO solution and 90% sterile water for injection as vehicle. Blood samples were collected at 0.25, 0.5, 1, 2, 4, 6, 8, 12 and 24 hr post-dose (n=9 mice/group, staggered sampling with 3 mice/time point). At each time point, under isoflurane anesthesia approximately 70 μL of blood was collected through retro orbital plexus puncture and transferred into a pre-labeled tube. 50 μL of blood was taken from the prelabeled tube and it was added into a labelled tube containing 200 μL of acetonitrile to precipitate proteins. Immediately, blood samples were vortexed to facilitate mixing of acetonitrile with the blood. Samples were kept on dry ice at −70° C. until analysis. [table] Bioanalysis was performed using fit-for-purpose analytical method using LC-MS/MS method for the quantification of PV-267 (Parent) or PV-3212 (Parent) and PV-623 (Metabolite) in mice blood samples and the linearity range was 2 to 2500 ng/mL for PV-267 (Parent), PV-3212 (Parent) and PV-623 (metabolite). The blood pharmacokinetic parameters for PV-267 and PV-3212 were calculated by using standard non-compartmental analysis (Phoenix software, version 6.4, Pharsight Corporation, Mountain View, Calif. 94040/USA) using the sparse sampling model and linear trapezoidal with linear interpolation calculation method. Pharmacokinetic Parameters for PV-623 (metabolite) were not calculated due to insufficient blood concentrations.

[2] = tested on: BC3 T cells + autologous hPBMCs from DRB1*15:01-positive MS patient; test: Human cellular immunology assay (IFN-gamma ELISPOT); format: cell-based; settings: inhibition of IFN-gamma response, FIG. 2
Procedure: After washing and blocking, autologous APCs (irradiated PBMCs) pretreated with different concentrations of the DRB1*15:01 inhibitors for 45 min were added on the plate (0.3−0.5×10^6 cells per well), followed by the addition of Ag or positive control using PHA (Sigma-Aldrich) or anti-human CD3 mAb (Bio X Cell; OKT3) along with BC3 T cells or enriched PBMC T cells (4,000-20,000 cells per well). Plates were incubated at 37° C. for 24 h, then washed and biotinylated anti-human IFN-γ mAb (Thermo Scientific; B133.5) was added at 4° C., overnight. After that, plates were incubated with Streptavidin AP (Invitrogen) and developed with BCIP/NBT Phosphatase substrate (KPL) after washing. After developing of the plates, image analysis of ELISPOT assays was performed on a Series 2 ImmunoSpot analyzer and software (CTL) as described previously (Kawamura, K., et al., (2008) J. Immunol. 181: 3202-3211).

HLA-DRB1*15:01 = biological target: T1, HLA-DRB1*15:01 (Homo sapiens, UniProt P01903+P01911); test: HLA II binding assay (competitive, biotinylated reference peptide)
T1 construct: endogenous in cells; host or cells: EBV homozygous cell lines (human)

[3] = Pharmacokinetics of PV-267 in rats and mice
[4] = tested on: EAE in DRB1*15:01 transgenic mice; settings: cited from earlier work
[5] = tested on: Goodpasture antigen (α3(IV)NC1); settings: Huynh et al. 2019; cited from earlier work
[6] = C57BL/6J, mouse, in vivo, ip, 10 mg/kg
[7] = Table 2, DRB1*15:01 binding, unit inferred, nM, read-out: Avg IC50

Structure (SMILES): COCCOCCOCCOCCNC(=O)[C@H](Cc1ccccc1)NC(=O)[C@@H]1Cc2ccccc2CN1C(=O)[C@H](CCCNC(=N)N)NC(=O)[C@@H](NC(=O)[C@@H](NC(C)=O)C(C)C)C1CCCCC1 [PV-3213, Ac-V-(Chg)-R-(Tic)-F—NH(CH2CH2O)4CH3] (Ac-V[Chg]R[Tic]F-{NH(CH2CH2O)4Me})
- potency compared to PV-267 in human cellular assay [2]: at least as potent as the unsubstituted PV-267

Structure (SMILES): CC(=O)N[C@H](C(=O)N[C@H](C(=O)N[C@@H](CCCNC(=N)N)C(=O)N1Cc2ccccc2C[C@H]1C(=O)N[C@@H](Cc1ccccc1)C(N)=O)C1CCCCC1)C(C)C [PV-267, Ac-V-(Chg)-R-(Tic)-F—NH2] (Ac-V[Chg]R[Tic]F-NH2)
- IC50 (HLA-DRB1*15:01; read-out: binding IC50): 2.5 nM
- ratio of metabolite PV-623 to parent at 0.25 hr ([1]; 10 mg/kg IP, 0.25 hr): 0.61 and 0.67
- ratio of metabolite PV-623 to parent at 0.5 hr ([1]; 10 mg/kg IP, 0.5 hr): 0.73
- level at 0.25 h ([1]; C57BL/6J, mouse, plasma, ip, 10 mg/kg, parent, text b45, 0.25 hr, read-out: plasma concentration at 0.25 hr): 275 ng/mL
- level at 0.5 h ([1]; C57BL/6J, mouse, plasma, ip, 10 mg/kg, parent, text b45, 0.5 hr, read-out: plasma concentration at 0.5 hr): 91.5 ng/mL
- Cmax ([1]; C57BL/6J, mouse, whole blood, single IP 10 mg/kg, observed at 0.25 hr post dose, read-out: Parent peak blood concentration): 275 ng/mL
- metabolism to the acid PV-623 ([1]; mouse PK studies): rapidly metabolized to PV-623
- Mean Plasma Concentration 0.25 hr ([1]; parent compound, 10 mg/kg IP, 0.25 hr): 275 ng/mL
- Mean Plasma Concentration 0.5 hr ([1]; parent compound, 10 mg/kg IP, 0.5 hr): 91.5 ng/mL
- in vivo conversion to C-terminal acid PV-623 [3]: significantly converted to the C-terminal acid PV-623
- efficacy in animal models of multiple sclerosis [4]: efficacy in animal models of multiple sclerosis
- autoreactivity to the Goodpasture antigen [5]: attenuates autoreactivity to the Goodpasture antigen

Structure (SMILES): CC(=O)N[C@H](C(=O)N[C@@H](CCCNC(=N)N)C(=O)N1Cc2ccccc2C[C@H]1C(=O)N[C@@H](Cc1csc2ccccc12)C(N)=O)C1CCCCC1 [PV-477] (Ac-[Chg]R[Tic][Bta]-NH2)
- IC50 (HLA-DRB1*15:01; [7]): 82 nM

Further lines, with some results ahead:

- Cmax [1, 6]: 741 ng/mL
- half-life [1, 6]: 3.23 h
- level at 0.25 h [1, 6]: 741 ng/mL
- level at 0.5 h [1, 6]: 195 ng/mL
- metabolism to the acid PV-623 ([1]; mouse, in vivo): remarkably stable
- Mean Plasma Concentration 0.25 hr ([1]; mouse, in vivo, ip, 10 mg/kg): 741 ng/mL
- Mean Plasma Concentration 0.5 hr ([1]; mouse, in vivo, ip, 10 mg/kg): 195 ng/mL
Structure (SMILES): COCCNC(=O)[C@H](Cc1ccccc1)NC(=O)[C@@H]1Cc2ccccc2CN1C(=O)[C@H](CCCNC(=N)N)NC(=O)[C@@H](NC(=O)[C@@H](NC(C)=O)C(C)C)C1CCCCC1 [PV-3212, Ac-V-(Chg)-R-(Tic)-F—NH(CH2CH2O)1CH3] (Ac-V[Chg]R[Tic]F-NHCH2CH2OMe)
- potency compared to PV-267 in human cellular assay [2]: more potent than the simple amide (PV-267)

- IC50 (HLA-DRB1*15:01; [7]): 26 nM
- Mean Plasma Concentration 0.25 hr ([1]; acid metabolite PV-623 after PV-267 10 mg/kg IP, 0.25 hr): 169 ng/mL
- Mean Plasma Concentration 0.5 hr ([1]; acid metabolite PV-623 after PV-267 10 mg/kg IP, 0.5 hr): 65.3 ng/mL
- Mean Plasma Concentration 0.25 hr ([1]; acid metabolite PV-623 after PV-3212 10 mg/kg IP, 0.25 hr): 8.54 ng/mL
- Mean Plasma Concentration 0.5 hr ([1]; acid metabolite PV-623 after PV-3212 10 mg/kg IP, 0.5 hr): 3.57 ng/mL
Structure (SMILES): CC(=O)N[C@H](C(=O)N[C@H](C(=O)N[C@@H](CCCNC(=N)N)C(=O)N1Cc2ccccc2C[C@H]1C(=O)N[C@@H](Cc1ccccc1)C(=O)O)C1CCCCC1)C(C)C [PV-623, Ac-V-(Chg)-R-(Tic)-F—OH] (Ac-V[Chg]R[Tic]F-OH)
